These results are taken from patent US20250230226A1, “PLXDC1/PLXDC2 ACTIVATORS AND THEIR USE IN THE TREATMENT OF BLOOD VESSEL DISORDERS” (THE REGENTS OF THE UNIVERSITY OF CALIFORNIA, priority 2019, published 2025).

One experiment deals with tumor endothelial cells. In words: Ex vivo model of tumor angiogenesis, comparison with anti-VEGF drug and PEDF (FIG. 4). As to conditions: cells grown 5 days, test reagents added for 2 days. The class given is cell-based. How it is done:
FIG. 4A-F. A comparison between an anti-VEGF drug, PEDF and two compounds that target PLXDC1/PLXDC2 in an ex vivo model of tumor angiogenesis. […] Tumor endothelial cells were grown for 5 days before test reagents were added for 2 days. Green cells are live cells and red cells are dead cells.
• 1. The day before the experiment, all necessary tools were sprayed with 70% ethanol and sterilized under UV light overnight, including blade, dissecting and micro-dissecting scissors and […]. 24-well dishes were placed at 4° C. to pre-chill plates and Matrigel was thawed, 24 hours before tumor dissection. • 2. 70% ethanol was sprayed on working bench. Two sterile petri dishes were prepared with 10 ml sterile PBS. The following steps 3 and 4 are necessary for mouse tumor models. For fresh human tumor, steps 3 and 4 are skipped. • 3. The tumor-bearing mice were euthanized. 70% ethanol was sprayed on the mouse and the tumor was removed using sterilized dissecting tools (avoid the fur). The tumor was rinsed in petri dish with sterile PBS to remove ethanol and fur. […] When the assay was ready to be analyzed for cell death (e.g., 48 hours after drug addition), the dye mixture was prepared by mixing 6 μl of green dye to stain live cells (5 mg/ml Fluorescein diacetate or FDA in DMSO) with 30 μl of red dye (2.5 mg/ml Propidium iodide or PI in PBS) to stain dead cells in an Eppendorf tube. […]

A further experiment deals with tumor blood vessels. Nature of the experiment: Systemic administration in tumor-bearing mouse (FIG. 7). The class given is in vivo. The source says:
FIG. 7A-D. Systemic administration of a compound that targets PLXDC1 and PLXDC2 kills existing tumor blood vessels and leads to massive tumor necrosis. […] The high specificity of the treatment is illustrated by the healthy skin blood vessels that cover the dead yellow tumor. C. The tumor from control mouse in A is cut open to reveal that it is rich in tumor blood vessels and is a live tumor. D. The tumor from compound-treated mouse in B is cut open to reveal a lack of tumor blood vessels and a necrotic tumor with yellow cheese-like appearance (coagulative necrosis). Coagulative necrosis is exactly what is expected for a treatment that can kill existing tumor blood vessels to block major blood supplies to the tumor. Precise and efficient killing of tumor blood vessels to cause massive tumor death by necrosis, which has been achieved by the compound 369 targeting PLXDC1/PLXDC2, cannot be achieved by any existing drugs or known antiangiogenic factors.
The tumor died of massive coagulative necrosis, exactly the kind of cell death caused by killing blood vessels.

The subject of experiment [1] is LL/2 lung cancer tumor endothelial cells. Nature of the experiment: Lung LL2 ex vivo model of tumor angiogenesis. The class given is cell-based, mouse. As to conditions: 20 μm. In outline: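 LL2 mouse tumor fragments (~0.075 mm³) embedded in Matrigel and cultured in endothelial growth medium at 37 °C until endothelial outgrowth (~4 days) before treatment. Cell death assessed e.g. 48 h after drug by fluorescein diacetate (live)/propidium iodide (dead) staining and red/green fluorescence imaging.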

For experiment [2], the system named is choroidal endothelial cells. In words: Ex vivo model of choroidal angiogenesis (FIG. 2). The class given is cell-based. The procedure:
FIG. 2A-E. Comparison of compound 369 (Table 3) with the current anti-angiogenic drug in an ex vivo model of choroidal angiogenesis. A. A schematic diagram of the timeframe of the experiment. […] Treatment lasts for two days before cell death and survival are analyzed. B. Control experiment without any drug treatment at day 7. The white circle in the middle delineates the piece of choroid/RPE that was embedded to initiate neovascularization. C. […] Eylea was added at 10 μM. […] The compound was added at 10 μM. In B-D, green cells are live cells and red cells are dead cells. E. Quantitation of the experiments described in B-D. The amount of new endothelial cells in the untreated control is defined as 100%.

Each structure is given as a SMILES string.

As to `CCCCCCCCCCCCOc1ccc(S(=O)(=O)c2cnc3ccc([S+](C)[O-])cc3c2N2CCC(N3CCC(N4CCN(CCO)CC4)CC3)CC2)cc1F` (stereo not drawn) [Compound 369], the “Killing of existing tumor endothelial cells” value in the experiment on tumor endothelial cells is on record as “can kill existing tumor endothelial cells”. In addition, the “Killing of existing tumor blood vessels and tumor death” value in the experiment with tumor blood vessels is “can kill existing tumor blood vessels and lead to strong tumor death”. Moreover, the “48 hrs (morphology observations)” value in experiment [1] (48 hours, LL/2 tumor endothelial cells) is on record as “* (50% or less of cells vesicularize in cell shape)”. In addition, the Cell death in experiment [1] (drug treatment for two days, ratio of red area to total endothelial cell area) is reported as 20%. In addition, the “Killing of endothelial cells in choroidal angiogenesis” value in experiment [2] (added at 10 μM at day 7, treatment two days) is on record as “can kill the endothelial cells”. Also, the “Effect on healthy tissue (choroid and retinal pigment epithelium)” value in experiment [2] (added at 10 μM, two days) was “without affecting the healthy tissue”.
